Values joined by “and” are separate entries in the source; they are usually repeats but may differ in a detail not shown here. Identical values can stand only once. Like-named read-outs stand apart in the source and are kept apart here. Bounds are passed on as bounds.

The results in this text go back to patent publication US20150272959A1, “SMALL MOLECULES AS ANTI-HIV AGENTS THAT DISRUPT VIF SELF-ASSOCIATION AND METHODS OF USE THEREOF” (OYAGEN, INC., priority 2012, published 2015).

For one series, the system named is pseudotyped HIV. It is filed as cell-based. The conditions noted are these: for efficacy: all concentrations tested below 15 μM; for toxicity: concentrations higher than 15 μM. The text has this:
This figure is a visual representation of how the single cycle infectivity experiments were done. They are in 6 well format in order to obtain enough virus to do viral particle purifications for western blot detection of A3G in the viral particle. […] The wild type HIV proviral vector codes for all HIV genes except nef (replaced with EGFP) and env. […] Alternatively, in the absence of A3G, both wild type and ΔVif viruses should have high infectivity.
[…]. Viral load was then normalized with a p24 ELISA (Perkin Elmer).
The infections utilized TZM-bl reporter cells that contain stably integrated luciferase that is driven by the HIV-LTR promoter, therefore luciferase is expressed upon successful HIV infection. Triplicate infections in 96-well plates at 10,000 cells/well with 500 pg p24/well proceeded for 48 hours before the addition of SteadyGlo™ Reagent (Promega) to each well for 30 minutes. Luminescence was measured as a quantitative metric for changes in infectivity with each compound as compared to controls, in which relative luminescence units (RLU) with no chemistry are set to 100%.
This figure is intended to highlight where in the experimental method negative results occurred. Although all compounds to this point in screening have shown little to no toxicity in the Primary and Secondary Screens, when cells are challenged with viral production they are more sensitive to toxicity from chemistries since cells have to combat viral proteins overtaking of cellular pathways and any adverse effects from the chemistries. […] If the producer cells are healthy and make enough virus for infectivity testing there are three possible outcomes and two are undesirable for any chemistry to go forward into probe development. […] This is best represented as a differential between infectivity in the presence of Vif and A3G vs the absence of Vif and A3G.
Each compound was tested at multiple concentrations in separate infectivity assays. The concentrations are listed on the top, followed by the infectivity in relation to the no chemistry control for both + and −Vif and A3G conditions, and the large number on the bottom is the differential between infectivity of +Vif virus and with A3G cotransfected compared to −Vif virus without A3G (purple numbers are for good values and blue numbers are for weak values). […] For compound 9 although the drop in infectivity compared to the no chemistries controls are not as low as for compounds 21 and 24 for +Vif and A3G infectivities, there is an increase in the −Vif and A3G infectivities compared to control making the differential between the +/−Vif and A3G virus lower than 24 and 21 at 0.33 and 0.44 in Dry Powder Infectivities B&C. Note that normalization for the viral load with p24 only accounts for total viral particles in the media, but is unable to discriminate between mature and immature virions. If a chemistry has an effect on % of mature virions compared to the no chemistry control there could be an impact on viral infectivity values compared to control. Therefore, although it is crucial to see lower infectivity than the no chemistry control the more critical number is the differential between +/−Vif and A3G, because both those virial preps contain the chemistry and would have similar effects on the viral populations going into the infectivity assay. On the other hand, compound 21 has +Vif and A3G infectivity at 56% at 15 μM but the −Vif and A3G infectivity is only at 63% making the differential only 0.88.

Series [1] deals with A3G in the viral particle. Description: A3G in the viral particle, western blot A3G:p24 ratio (FIG. 18). The conditions noted are these: for increase of A3G:p24 ratio over the negative control: parallel to Dry Powder Infectivities B & C, 30 ng p24. It is filed as cell-based, HIV. The protocol:
Parallel to Dry Powder Infectivities B & C, viral particles (30 ng p24) were pelleted through a 20% sucrose cushion, resolved by SDS-PAGE and western blotted for VS-tagged A3G and p24. The yield of A3G relative to p24 (as a virus loading control) was quantified by scanning densitometry to validate the antiviral mechanism. The first two lanes are the −Vif virus with A3G (positive control) and the +Vif virus with A3G (negative control). The A3G:p24 Ratio for the negative control was set to 1 (Ratios listed under the westerns). Chemistry 24 had 5 and 15 fold increases over the negative control. On the other hand, chemistry 9 had increases of 55 and 76-fold over the control, both higher than the positive control at 48-fold above the negative control. However, the positive control has lower overall infectivity and differentials than 9.
A general note: A western blot detects proteins with antibodies after separation by electrophoresis.

The test system of the next series is A3.01 (+A3G) cells. It is filed as cell-based. The text has this: (§1) All the screens to this point utilized 293T cells and the Brd. […] The rationale is to set a CC50 standard in T cells to measure against for medicinal chemistry derived compounds created from these scaffolds going forward. CEMSS (−A3G) and A3.01 (+A3G) were selected, because they are both CEM derived T cell lines that can be used to compare in live virus spreading infections for A3G-dependency.

In the next series the test system is CEMSS (-A3G) cells. It is filed as cell-based.
From the text: as §1

Series [2] deals with Vif-dependent A3G degradation. Briefly: Vif-dependent A3G-mCherry degradation assay in 293T cells. The conditions noted are these: single dose 8 μM. It is filed as cell-based. The protocol: A3G-mCherry is stably expressed in 293T cells under puromycin selection. 50 ng of Vif was transiently transfected into the cells in 384-well format with Turbofect. 4 hours after transfection the chemistries were added to cells in a range from (0.5-16 μM). 24 hours after chemistries were added the mCherry signal was read on a Biotek Synergy 4 plate reader. The signal from cells plated but not transfected with Vif was averaged and set at 100% (left image), and cells transfected with Vif and treated with DMSO only were averaged and set at 0% (right image). A chemistry that inhibits Vif's ability to chaperone A3G to the proteasomal degradation pathway would result in an increased mCherry signal compared to the DMSO only control, and any signal that is much higher than the no Vif positive control is likely to be due to autofluorescence from the chemistry itself.
To simplify the numbering the compounds were numbered from 1 to 32 in the same order as plated in the original vials and listed on the original Dry Powder list sent with the vials by the Broad. […] The first compound is 02-16, which is the lead from the previous OyaGen screen mentioned above with strong A3G dependency in live virus tests and the last data set are the DMSO controls that were averaged out to set the 0% mark. […]

Where [3] appears, read: 15 μM, relative to no chemistry control.

Turning to `FC(F)(F)c1nnc2c3ccccc3c(Cl)nn12` [Compound 24], in the series on pseudotyped HIV, the “+/-Vif and A3G differential (in words)” value is “differential between +/−Vif and A3G infectivities”; the antiviral activity entry is reported as “antiviral activity”; the efficacy result is “displayed efficacy”; the toxicity entry is given as “slight toxicity”. Moreover, the “A3G in the viral particles (in words)” value in series [1] is listed as “increase in A3G”. Besides, half-maximal cytotoxicity in the series on A3.01 (+A3G) cells (CC50) was put at 4.9 µM. For the same compound, the cytotoxic concentration (CC50) with CEMSS (-A3G) cells is 9.7 µM.
Take `Cc1nnc2ccc(-c3cccc(NS(=O)(=O)c4cc(F)ccc4F)c3)nn12` [Compound 9]: in series [2], the DMSO stock test entry was “low”. In addition, in the series on pseudotyped HIV, the “+/-Vif and A3G differential (in words)” value was “differential between +/−Vif and A3G infectivities”; the “-Vif and A3G infectivities compared to control” value is “increase”; the antiviral activity result was “antiviral activity”; the efficacy result is recorded as “displayed efficacy”. Moreover, the toxicity entry in the series on pseudotyped HIV was “slight toxicity”. In the series on pseudotyped HIV (Dry Powder Infectivity B), the “differential between +/-Vif and A3G virus infectivity” value amounted to 0.33. Also, the “differential between +/-Vif and A3G virus infectivity” value in the series with pseudotyped HIV (Dry Powder Infectivity C) stood at 0.44. Besides, in series [1], the “A3G in the viral particles (in words)” value was “increase in A3G”; the “increase of A3G:p24 ratio over the negative control” value is 55 fold and 76 fold. In the series with A3.01 (+A3G) cells, this compound returned a CC50 greater than 25 µM. In the series with CEMSS (-A3G) cells, this compound displayed a 50% cytotoxic concentration (CC50) greater than 25 µM.
As for `O=C(NC1(C(F)(F)F)Oc2ccc(Cl)cc2O1)N1CCC2(CC1)OCCO2` (stereo not shown) [Compound 21], the “+/-Vif and A3G differential (in words)” value in the series with pseudotyped HIV was “differential between +/−Vif and A3G infectivities”. In addition, the antiviral activity entry in the series with pseudotyped HIV is listed as “antiviral activity”. Moreover, the “differential between +/-Vif and A3G infectivity” value in the series with pseudotyped HIV (15 μM) stood at 0.88; in the series on pseudotyped HIV (above 30 μM, Dry Powder infectivity A), 0.65; with pseudotyped HIV (above 30 μM, Dry Powder infectivity C) it was 0.57. For the same compound, in the series with pseudotyped HIV (setting [3]), the “+Vif and A3G infectivity” value was determined as 56%. The “-Vif and A3G infectivity” value in the series with pseudotyped HIV (setting [3]) was found to be 63%. The toxic effects result with pseudotyped HIV (above 30 μM) is listed as “no toxic effects”. Moreover, the “A3G in the viral particles (in words)” value in series [1] is on record as “increase in A3G”. For the same compound, the “increase of A3G:p24 ratio over the negative control” value in series [1] is 4 fold and 5 fold. Besides, the half-maximal cytotoxic concentration (CC50) with A3.01 (+A3G) cells and in the series with CEMSS (-A3G) cells was greater than 25 µM in each case.

What is called CC50 is the concentration at which the toxic effect on the cells reaches its halfway point. Low readings indicate harm at low concentration, high ones better tolerance by the cells.
